Source: patent US20180333382A1, “PHARMACEUTICAL COMPOSITIONS COMPRISING DGLA AND USE OF SAME” (DS Biopharma Limited, priority 2017, published 2018)
Entries after “also recorded” stand apart in the source; their conditions may differ. Marks after values point to notes of the source that are not given here.

Columns and labels:
[1] = Phase one study: safety and tolerability (TEAEs, vital signs, ECG); conditions: for tolerability: healthy volunteers
Method: Screening procedures were conducted for both parts one and two before the start of the study on Day −1 (Baseline) by evaluating the safety assessments.
Subjects were monitored throughout their confinement at the Phase 1 unit for adverse reactions to the study drug and/or procedures.
Safety analyses were performed on the safety population tabulated by treatment arm, cohort, and visit. All safety data were characterized by descriptive statistical tools. […] Evaluation of safety assessments was performed in a descriptive manner. Continuous variables were characterized by their mean, standard deviation (SD), median, minimum and maximum values; discrete variables were characterized by their absolute (frequency) and relative (percentage) distribution.

[2] = test system: patients with moderate to severe atopic dermatitis having normal eosinophil levels; test: Post hoc stratification of the phase II study by eosinophil level (normal <0.3×10^9/L); type: in vivo, human; conditions: for Percentage Change of BSA Levels From Baseline, Mean / Percentage Change of DLQI Scores From Baseline, Mean / Percentage Change of EASI Scores From Baseline, Mean / Percentage Change of IGA Scores From Baseline, Mean / Percentage Change of POEM Scores From Baseline, Mean / Percentage Change of SCORAD Levels From Baseline, Mean / Percentage Change of VAS Scores From Baseline, Mean: Normal Eosinophil Population
Method: (§1) Further to the randomized, double-blind, placebo-controlled, phase II study of Example 2 above, a post hoc stratification analysis was performed using the results of that study to assess the efficacy of orally administered DS107G (DGLA) to patients with moderate to severe atopic dermatitis having normal eosinophil levels of less than about 0.3×10^9/L compared to the same population receiving placebo and/or to the total study population. The primary objective of the post hoc stratification study was to compare the efficacy of orally administered DS107G capsules, versus placebo, in the treatment of adult patients with moderate to severe atopic dermatitis having normal eosinophil levels of less than about 0.3×10^9/L. The secondary objective was to compare the efficacy of orally administered DS107G capsules in the treatment of adult patients with moderate to severe atopic dermatitis having normal eosinophil levels of less than about 0.3×10^9/L versus the total study population. Unless stated otherwise, all elements of the post hoc stratification analysis were the same as those of the phase II study described in Example 2 above.

[3] = test system: patients with moderate to severe atopic dermatitis having high eosinophil levels; test: Post hoc stratification of the phase II study: subgroup with high eosinophil > 0.3 × 10^9/L; type: in vivo, human; conditions: daily, 8 weeks
Method: as §1
A comparison of the total study population (see column “DS107 Phase 2a I.T.T.”), patients having normal eosinophil levels, and patients having high eosinophil levels separated by patients who received DS107 or placebo is shown in Table 32 below.

[4] = Normal Eosinophil < 0.3 × 10^9/L, daily, 8 weeks
[5] = Normal Eosinophil < 0.3 × 10^9/L, daily, 8 weeks, LOCF
[6] = normal eosinophil levels, weeks 2, 4, 6, 8 and 10, vs placebo or total study population
[7] = patients having normal eosinophil levels
[8] = study population having normal eosinophil levels, oral, once daily, 8 weeks

With `CCCCC/C=C\C/C=C\C/C=C\CCCCCCC(=O)O` [DS107G, Dihomo gamma linolenic acid] the tolerability ([1]; 2000- or 4000-mg once daily for 28 consecutive days) was “tolerated well”, the subjects reporting diarrhea ([1]; 2000-mg group, 3/6) was 50% and the subjects reporting diarrhea ([1]; 4000-mg group, 4/6) was 66.7%. The subjects reporting nausea ([1]; 4000-mg treatment group, 4/6, 10 events) was 66.7%, the deaths ([1]; multi-dose study) was “no deaths” and the “severe TEAEs” value ([1]; multiple dose) was “no severe TEAEs”. For the same compound, the “incidence of TEAEs” value ([1]; multiple dose, 11/12 active-treated subjects, total of 52 TEAEs) was 91.73%, the tolerability ([1]; single dose 500, 1000, 2000 or 4000 mg) was “well tolerated” and the “incidence of diarrhea (loose stool)” value ([1]; single dose, 5/24 active-treated subjects) was 20.8%. For the same compound, the “EASI-50 (%)” value [2, 4] was 60%, the “EASI-75 (%)” value [2, 4] was 40% and the “BSA Change from Baseline” value [2, 5] was −41% *. The “EASI Percentage Change from Baseline” value [2, 5] was −51% *, the “IGA responder (%)” value [2, 5] was 42% * and the “Pruritus Percentage Change from Baseline” value [2, 5] was −53% *. The “Percentage Change of BSA Levels From Baseline, Mean” value ([2]; Week 2) was −10.8%, the “Percentage Change of DLQI Scores From Baseline, Mean” value ([2]; Week 2) was −41.3% and the “Percentage Change of EASI Scores From Baseline, Mean” value ([2]; Week 2) was −20.7%. For the same compound, the “Percentage Change of IGA Scores From Baseline, Mean” value ([2]; Week 2) was −15.1%, the “Percentage Change of POEM Scores From Baseline, Mean” value ([2]; Week 2) was −41.8% and the “Percentage Change of SCORAD Levels From Baseline, Mean” value ([2]; Week 2) was −16.5%. For the same compound, the “Percentage Change of VAS Scores From Baseline, Mean” value ([2]; Week 2) was −29.8%, the “Percentage Change of BSA Levels From Baseline, Mean” value ([2]; Week 4) was −21.2% and the “Percentage Change of DLQI Scores From Baseline, Mean” value ([2]; Week 4) was −58.2%. The “Percentage Change of EASI Scores From Baseline, Mean” value ([2]; Week 4) was −41.9%, the “Percentage Change of IGA Scores From Baseline, Mean” value ([2]; Week 4) was −28.8% and the “Percentage Change of POEM Scores From Baseline, Mean” value ([2]; Week 4) was −55.3%. For the same compound, the “Percentage Change of SCORAD Levels From Baseline, Mean” value ([2]; Week 4) was −34.8%, the “Percentage Change of VAS Scores From Baseline, Mean” value ([2]; Week 4) was −50.9% and the “Percentage Change of BSA Levels From Baseline, Mean” value ([2]; Week 8) was −41.0%. For the same compound, the “Percentage Change of DLQI Scores From Baseline, Mean” value ([2]; Week 8) was −57.5%, the “Percentage Change of EASI Scores From Baseline, Mean” value ([2]; Week 8) was −51.1% and the “Percentage Change of IGA Scores From Baseline, Mean” value ([2]; Week 8) was −42.6%. The “Percentage Change of POEM Scores From Baseline, Mean” value ([2]; Week 8) was −53.1%, the “Percentage Change of SCORAD Levels From Baseline, Mean” value ([2]; Week 8) was −44.3% and the “Percentage Change of VAS Scores From Baseline, Mean” value ([2]; Week 8) was −52.7%. The “Percentage Change of BSA Levels From Baseline, Mean” value ([2]; Week 10) was −49.7%, the “Percentage Change of DLQI Scores From Baseline, Mean” value ([2]; Week 10) was −61.6% and the “Percentage Change of EASI Scores From Baseline, Mean” value ([2]; Week 10) was −59.6%. For the same compound, the “Percentage Change of IGA Scores From Baseline, Mean” value ([2]; Week 10) was −46.2%, the “Percentage Change of POEM Scores From Baseline, Mean” value ([2]; Week 10) was −50.1% and the “Percentage Change of SCORAD Levels From Baseline, Mean” value ([2]; Week 10) was −47.1%. The “Percentage Change of VAS Scores From Baseline, Mean” value ([2]; Week 10) was −47.7%, the “effect in patients having normal eosinophil levels compared to placebo or the total study population” value ([2]; in vivo) was “greater effect; also recorded: higher response rate” and the “change in BSA levels relative to baseline” value [2, 6] was “greater change”. The “change in DLQI levels relative to baseline” value [2, 6] was “greater change”, the “change in EASI scores relative to baseline” value [2, 6] was “greater change” and the “change in IGA scores relative to baseline” value [2, 6] was “greater change”. For the same compound, the “change in POEM scores relative to baseline” value [2, 6] was “greater change”, the “change in SCORAD levels relative to baseline” value [2, 6] was “greater change” and the “change in VAS scores relative to baseline” value [2, 6] was “greater change”. The IGA responder rate ([2]; patients having high eosinophil levels (greater than about 0.3×10^9/L)) was 0%, the “EASI scoring: patients classified as responders” value [2, 7] was 51% and the “IGA responders (IGA 0 or 1 at Week 8, 2-point decrease)” value [2, 7] was 42%. The “Pruritus scores (VAS): patients classified as responders” value [2, 7] was 53%, the pruritus reduction [2, 7] was 53% and the “EASI (% decrease)” value [2, 8] was 51%. The “IGA responders (%)” value [2, 8] was 42%, the “Pruritus delta (as measured by VAS)” value [2, 8] was 53% and the “Pruritus score decrease (as measured by VAS)” value [2, 8] was “c. (2.0)”. The “SCORAD (% decrease)” value [2, 8] was 44%, the “BSA Change from Baseline” value [3] was −14.9% and the “EASI Percentage Change from Baseline” value [3] was −20.1%. The “EASI-50 (%)” value [3] was 22.7%, the “EASI-75 (%)” value [3] was 9.1% and the “IGA responder (%)” value [3] was 0%. For the same compound, the “Pruritus Percentage Change from Baseline” value [3] was −6.5%.
